Measured values from patent US20170015555A1, “LONG-TERM PRESERVATION AND NOVEL APPLICATION OF CHLOROUS ACID AQUEOUS SOLUTION FORMULATION” (priority 2013, published 2017).

Test system: Microbes of the genus Salmonella: Salmonella Enteritidis IF03313
Assay type: cell-based
Details: stored at 25° C. Day 7; 1000 ppm available chlorine
Text: 1) Chlorous acid aqueous solution formulation (see Example 1: Table 11) Treatment sheet (material: 100% cotton): (about 27×40 cm) *Impregnated at a ratio of weight of treatment sheet (g): amount of liquid (ml)=1:3 2) Imitation vomit Miso solution: adjusted to pH of 2 with hydrochloric acid 3) Test Microbes that were Used E. coli: Escherichia coli IF03927 Staphylococcus aureus: Staphylococcus aureus IF0 12732 Thermoduric Microbes (Bacillus cereus): Bacillus cereus NBRC15305 Microbes of the genus Salmonella: Salmonella Enteritidis IF03313 Enterohemorrhagic Escherichia coli O157: Escherichia coli O157 Enterohemorrhagic Escherichia coli O111: Escherichia coli O111 Enterohemorrhagic Escherichia coli O26: Escherichia coli O26
(1) Imitation vomit was spread in an area about the size of an A4 sheet. (2) 5 dry sheets were laid thereon. (3) An agent solution was poured on the dry sheets to wipe off the imitation vomit. (4) A cotton swab was soaked with sterile saline. A portion where imitation vomit was spread was scrubbed with the cotton swab to collect microbes remaining on the floor. After suspending in saline, the solution was spread on a petri dish and cultured. The number of each of the microbes was measured. (5) Test operations 3 and 4 were repeated a total of 7 times (repeated until the imitation vomit could be removed completely).

[Na] [Sodium]
<10: Number of Times Wiped 1 Time (remaining microbes) | Number of Times Wiped 2 Times (remaining microbes) | Number of Times Wiped 3 Times (remaining microbes)
